Measurements reported in patent publication US8648047B2, “Methods and compositions for inhibition of multi-drug resistance by hyaluronan oligomers” (Tufts University, priority 2002, dated 2014).
Read-outs that look alike come from different tables or passages of the source. Values belong to the compound of their own block, whether it stands above or below them.

Columns and labels:
[1] = test system: MCF-7/Adr drug-resistant human mammary carcinoma cells; test: Drug resistance, viable cell number (Coulter Counter); assay type: cell-based
Description: (§1) FIG. 15A is a line graph showing that MCF-7/Adr drug-resistant human mammary carcinoma cells grown in culture with hyaluronan oligomers are sensitized to doxorubicin. MCF-7/Adr cells were obtained from MCF-7 cells by being selected for drug resistance by exposure to doxorubicin. Cells were grown for 24 h in 24-well plates in RPMI 1640 medium containing Glutamex 1 plus 10% fetal bovine serum at 37° in 5% CO2. Various concentrations of doxorubicin (doxo) were then added and the cells incubated for another 72 h, followed by a further 24 h in the presence or absence of 100 μg/ml hyaluronan oligomers (o-HA). The oligomers were a mixed population of 3-8 repeating disaccharides in length. The cells were then harvested and the number of viable cells was determined in a Coulter Counter.
FIG. 18 is a set of line graphs showing a resulting cell number, on the ordinate, following drug treatment with doxorubicin, concentration (log) in nM on the abscissa, showing restoration of drug sensitivity (inhibition of drug resistance) by HA oligomers, soluble hyaluronan-binding decoys, and CD44 siRNA, using derivatives of MCF-7 cells as in FIG. 17 above.
Therefore, the effect of co-treatment with hyaluronan oligomers on drug resistance was examined in an established system, i.e. MCF-7/Adr human mammary carcinoma cells that have been selected for resistance to doxorubicin (Fairchild, C. R., et al., Cancer Res 47, 5141-8, 1987). First, the effect of hyaluronan oligomers on resistance to doxorubicin in the MCF-7/Adr cells versus the relatively drug-sensitive, parental MCF-7 cell line was compared.

[2] = test system: MCF-7 human mammary carcinoma cells; test: as above; assay type: cell-based
Description: as §1

[3] = test system: MCF-7 cells infected with Has2, emmprin or β-galactosidase adenovirus; test: Doxorubicin resistance of recombinant adenovirus-infected MCF-7 cells; assay type: cell-based, human; details: for IC50: Homo sapiens, MCF7, 48 h, 48 h
Description: Untreated MCF-7 cells or cells infected overnight with a recombinant Has2 adenovirus or a control β-galactosidase adenovirus (β-gal) were washed, then treated in culture for 48 h with 1-1000 nM doxorubicin, followed by analysis of cell number.
Cells were treated in culture for 48 h with 10-1000 nM doxorubicin in the presence or absence of 100 μg/ml o-HA and analyzed as in FIG. 16A.
FIG. 16C is a line graph showing doxorubicin response of untreated MCF-7 cells or cells infected overnight with a recombinant emmprin adenovirus or a control β-galactosidase adenovirus (β-gal) that were treated as described in FIG. 16B.
Emmprin adenovirus-infected MCF-7 cells or control β-galactosidase adenovirus (β-gal)-infected cells were treated in the presence or absence of 100 μg/ml hyaluronan oligomers (o-HA) as described in FIG. 16B. The results in FIGS. 16A-D are expressed as the means (±S.D) of three independent experiments performed in triplicate.

[4] = test system: MDA-MB231 human mammary carcinoma cells; test: Methotrexate resistance, cell number in monolayer culture; assay type: cell-based
Description: MDA-MB231 human mammary carcinoma cells were treated with increasing concentrations of methotrexate (MTX) in the presence or absence of 100 μg/ml HA oligomers. Cells were grown in monolayer culture in 10% fetal bovine serum and cell number measured in a coulter counter. The MTT assay for viable cells (Denizot, F., et al. J Immunol Methods, 89: 271-277, 1986) gave similar results.
Effect of addition of hyaluronan oligomers on resistance of MDA-MB231 human breast cancer cells to treatment with methotrexate was assessed.

[5] = Homo sapiens, NCI/ADR-RES, MCF-7/Adr cells, drug alone
[6] = MCF-7/Adr + o-HA (100 μg/ml hyaluronan oligomers)
[7] = Homo sapiens, MCF7, MCF-7 cells, drug alone
[8] = MCF-7 + o-HA (100 μg/ml hyaluronan oligomers)

SMILES: COc1cccc2c1C(=O)c1c(O)c3c(c(O)c1C2=O)C[C@@](O)(C(=O)CO)C[C@@H]3O[C@H]1C[C@H](N)[C@H](O)[C@H](C)O1 [Doxorubicin]
IC50 [1, 5]: 2200 nM
IC50 [1, 6]: 40 nM
IC50 [2, 7]: 30 nM
IC50 [2, 8]: 40 nM
increase in resistance to doxorubicin induced by increased hyaluronan production ([3]; HAS2 adenovirus-infected MCF-7 versus controls): 10-12 fold
IC50 ([3]; Has2 adenovirus-infected MCF-7 cells): 210 nM
IC50 ([3]; uninfected MCF-7 cells): 18 nM
IC50 ([3]; β-galactosidase adenovirus-infected MCF-7 cells): 20 nM

SMILES: CC[C@]1(O)C[C@H]2CN(CCc3c([nH]c4ccccc34)[C@@](C(=O)OC)(c3cc4c(cc3OC)N(C=O)[C@H]3[C@@](O)(C(=O)OC)[C@H](OC(C)=O)[C@]5(CC)C=CCN6CC[C@]43[C@@H]65)C2)C1 [Vincristine]
IC50 [1, 5]: 200 nM
IC50 [1, 6]: 20 nM
IC50 [2, 7]: 30 nM

IC50 ([4]; MDA-MB-231, MB231 cells, with 100 μg/ml hyaluronan oligomer (FIG. 12), read-out: IC50): ~10 nM
IC50 ([4]; MDA-MB-231, MB231 cells, without hyaluronan oligomer (FIG. 12), read-out: IC50): ~1000 nM
IC50 ([4]; MDA-MB-231, MDA-MB231 + o-HA (100 μg/ml hyaluronan oligomers), read-out: IC50 values): 6 nM
IC50 ([4]; MDA-MB-231, MDA-MB231 cells, drug alone, read-out: IC50 values): 800 nM
SMILES: CN(Cc1cnc2nc(N)nc(N)c2n1)c1ccc(C(=O)N[C@@H](CCC(=O)O)C(=O)O)cc1 [Methotrexate]
IC50 [2, 7]: 20 nM

SMILES: CC(=O)O[C@H]1C(=O)[C@@]2(C)[C@H]([C@H](OC(=O)c3ccccc3)[C@]3(O)C[C@H](OC(=O)[C@H](O)[C@@H](NC(=O)c4ccccc4)c4ccccc4)C(C)=C1C3(C)C)[C@]1(OC(C)=O)CO[C@@H]1C[C@@H]2O [Taxol]
IC50 [1, 5]: 700 nM
IC50 [1, 6]: 60 nM
IC50 [2, 7]: 350 nM

SMILES: O=NN(CCCl)C(=O)NCCCl [BCNU, 1,3 bis(2-chloroethyl)-1-nitrosurea]
IC50 [1, 6]: 180 nM
IC50 ([1]; MCF-7/Adr cells, drug alone): 14000 nM
IC50 [2, 8]: 1200 nM
IC50 ([2]; MCF-7 cells, drug alone): 500 nM
